Results from patent US7354922B2, “Bridged ring NK1 antagonists” (Schering Corporation, priority 2004, dated 2008).

Molecular target: NK1 receptor (Homo sapiens, UniProt P25103)
Assay: NK1 receptor binding (inhibition of Substance P binding, Ki by Chang-Prusoff equation)
Text: The in vitro and in vivo NK1, NK2 and NK3 activities of the compounds of Formula (I) can be determined by various procedures known in the art, such as a test for their ability to inhibit the activity of the NK1 agonist Substance P. The percent inhibition of neurokinin agonist activity is the difference between the percent of maximum specific binding (“MSB”) and 100%. The percent of MSB is defined by the following equation, wherein “dpm” represents “disintegrations per minute”:
[formula] The concentration at which the compound produces 50% inhibition of binding is then used to determine an inhibition constant (“Ki”) using the Chang-Prusoff equation.
The activities (potencies) for the compounds of the invention are determined by measuring their Ki values. […] Even more preferred are compounds having average Ki values of from 0.05 nM to about 5 nM for the NK1 receptor. Especially preferred compounds have NK1 average Ki values of from 0.05 nM to about 1 nM. Even more especially preferred compounds have NK1 average Ki values of from 0.05 nM to about 0.2 nM.

NK1 receptor, sequence (P25103 whole entry, species assumed): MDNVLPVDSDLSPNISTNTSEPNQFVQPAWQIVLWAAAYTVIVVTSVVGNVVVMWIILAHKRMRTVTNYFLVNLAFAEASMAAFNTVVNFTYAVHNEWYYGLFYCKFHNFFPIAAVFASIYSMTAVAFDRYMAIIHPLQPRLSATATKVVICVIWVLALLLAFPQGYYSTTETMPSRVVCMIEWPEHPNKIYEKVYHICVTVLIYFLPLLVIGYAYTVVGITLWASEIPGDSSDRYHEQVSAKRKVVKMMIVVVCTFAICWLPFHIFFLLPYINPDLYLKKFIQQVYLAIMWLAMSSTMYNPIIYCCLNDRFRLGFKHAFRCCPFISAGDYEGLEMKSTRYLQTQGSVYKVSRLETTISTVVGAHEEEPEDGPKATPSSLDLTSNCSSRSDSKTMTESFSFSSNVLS

**Q.** C[C@@H](OC[C@@]1(c2ccccc2)CC[C@]2(CO)CN1CC(=O)N2)c1cc(C(F)(F)F)cc(C(F)(F)F)c1 [Example 3a] was tested. Which Ki did it give?
**A.** Its Ki is 0.15 nM.

**Q.** C[C@@H](OC[C@@]1(c2ccccc2)CC[C@@H]2CN1CCN2)c1cc(C(F)(F)F)cc(C(F)(F)F)c1 [Example 4] was tested. Which Ki did it give?
**A.** The Ki was 0.11 nM.

**Q.** C[C@@H](OC[C@@]1(c2ccccc2)CC[C@@H]2CN1CCN2C(N)=O)c1cc(C(F)(F)F)cc(C(F)(F)F)c1 [Example 5] was tested. Which Ki did it give?
**A.** Its Ki is 0.1 nM.

**Q.** C[C@@H](OC[C@@]1(c2ccccc2)CC[C@]2(CC#N)CN1CC(=O)N2)c1cc(C(F)(F)F)cc(C(F)(F)F)c1 [Example 8] was tested. Which Ki did it give?
**A.** Its Ki is 0.12 nM.

**Q.** COC[C@]12CC[C@@](CO[C@H](C)c3cc(C(F)(F)F)cc(C(F)(F)F)c3)(c3ccccc3)N(CC(=O)N1)C2 [Example 12] was tested. Which Ki did it give?
**A.** The Ki was 0.13 nM.

**Q.** For C[C@@H](OC[C@@]1(c2ccccc2)CC[C@]2(COC(N)=O)CN1CC(=O)N2)c1cc(C(F)(F)F)cc(C(F)(F)F)c1 [Example 15], which Ki is on record?
**A.** Its Ki is 0.09 nM.

**Q.** For C[C@@H](OC[C@@]1(c2ccccc2)CC[C@]2(CC(N)=O)CN1CC(=O)N2)c1cc(C(F)(F)F)cc(C(F)(F)F)c1 [Example 16], which Ki is on record?
**A.** The Ki was 0.16 nM.

**Q.** C[C@@H](OC[C@@]1(c2ccccc2)CC[C@]2(Cn3cnnn3)CN1CC(=O)N2)c1cc(C(F)(F)F)cc(C(F)(F)F)c1 [Example 20] was tested. Which Ki did it give?
**A.** The Ki was 0.15 nM.

**Q.** Which Ki does the source give for C[C@@H](OC[C@@]1(c2ccccc2)CC[C@]2(CN3CCCCC3=O)CN1CC(=O)N2)c1cc(C(F)(F)F)cc(C(F)(F)F)c1 [Example 30] here?
**A.** The Ki was 0.11 nM.

**Q.** With C[C@@H](OC[C@@]1(c2ccccc2)CC[C@]2(CNC3CC3)CN1CC(=O)N2)c1cc(C(F)(F)F)cc(C(F)(F)F)c1 [Example 32] as the compound, how does the Ki read?
**A.** The Ki was 0.11 nM.

**Q.** How did the Ki turn out when CC(C)=NOC[C@]12CC[C@@](CO[C@H](C)c3cc(C(F)(F)F)cc(C(F)(F)F)c3)(c3ccccc3)N(CC(=O)N1)C2 [Example 33] was run?
**A.** Its Ki is 0.13 nM.

**Q.** How did the Ki turn out when CSC[C@]12CC[C@@](CO[C@H](C)c3cc(C(F)(F)F)cc(C(F)(F)F)c3)(c3ccccc3)N(CC(=O)N1)C2 [Example 34] was run?
**A.** Its Ki is 0.07 nM.

**Q.** With C[C@@H](OC[C@@]1(c2ccccc2)CC[C@]2(CNS(C)(=O)=O)CN1CC(=O)N2)c1cc(C(F)(F)F)cc(C(F)(F)F)c1 [Example 38] as the compound, how does the Ki read?
**A.** The Ki was 0.12 nM.

**Q.** For C[C@@H](OC[C@@]1(c2ccccc2)CC[C@@]2(NC(N)=O)CCCN1C2)c1cc(C(F)(F)F)cc(C(F)(F)F)c1 [Example 47], which Ki is on record?
**A.** The Ki was 0.12 nM.

**Q.** For C[C@@H](OC[C@@]1(c2ccccc2)CC[C@]2(CO)CN1CC(=O)O2)c1cc(C(F)(F)F)cc(C(F)(F)F)c1 [Example 49], which Ki is on record?
**A.** Its Ki is 0.16 nM.

**Q.** With C[C@@H](OC[C@@]1(c2ccccc2)CC[C@@]23COCCN2C(=O)CN1C3)c1cc(C(F)(F)F)cc(C(F)(F)F)c1 [Example 51] as the compound, how does the Ki read?
**A.** Its Ki is 0.12 nM.

**Q.** C[C@@H](OC[C@@]1(c2ccccc2)CC[C@]2(CO)CN1CCN2)c1cc(C(F)(F)F)cc(C(F)(F)F)c1 [Example 57] was tested. Which Ki did it give?
**A.** The Ki was 0.12 nM.
